IC50 and solubility data for 13 molecules are collected here from patent US20140005163A1 (NOVARTIS AG, priority 2010, published 2014).

Values after ≈ are worked out from the molar mass of the structure shown. Read-outs that look alike come from different tables or passages of the source. A value given as a limit tells only on which side of the number the result lay.

For orientation: IC50 means the concentration that gives 50% inhibition. What is called solubility is the dissolved amount per volume that the medium holds.

Series [1] concerns S6 Ribosomal Protein phosphorylation Ser235/236 in TSC1 null mouse embryo fibroblast (MEF) cells. The series is described as follows: Reverse protein array assay, S6 Ribosomal Protein phosphorylation Ser235/236 in TSC1 null MEF cells. The settings on record: 1 h, pS6 ribosomal protein Ser235/236, 60 minutes incubation, read-out: p-S6 IC50. Format: cell-based. The method in brief: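 TSC1−/− MEFs, seeded and held ≥20 h at 37 °C/5% CO2, were exposed to 8-step serial compound dilutions (0.02% DMSO final; DMSO vehicle control) for 60 min at 37 °C. Cells were then lysed on ice for 10 min and lysates spotted onto reverse protein array chips.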

A further series in a line: Solubility at pH 6.8. Format: physicochemical. An excerpt:
The physicochemical properties of relevance for the absorption of the compound, such as the solubility and the membrane permeability, especially at a pH close to neutral pH can be measured using the procedure as described by L. ZHOU et al. in JOURNAL OF PHARMACEUTICAL SCIENCES, VOL. 96, NO. 11, p. 3052-3071 (2007) for the solubility at pH 6.8 and the procedure as described by F. Wohnsland and B. Faller in Journal of Medicinal Chemistry Vol 44, p. 923-930 (2001) for the Parallel Artificial Membrane Permeability Assay (PAMPA) at pH 6.8.

In series [2] the test system is PKB Ser473 phosphorylation in Rat1-myr-HA-p110 beta cells. The series is described as follows: Reverse protein array assay, PKB Ser473 phosphorylation in Rat1-myr-p110 beta cells. Format: cell-based. The settings on record: 0.5 h, pAkt Ser473, 30 minutes incubation, read-out: p-PKB IC50. The method in brief:
(§1)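 After at least 20 h of culture, the p110 isoform-transfected Rat1 lines receive compound in an 8-step dilution series, keeping DMSO at 0.2%, for 30 minutes. Cells are then lysed and lysates arrayed on chips for fluorescence detection of Ser473-phosphorylated PKB.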

Series [3] has as its system PKB Ser473 phosphorylation in Rat1-myr-HA-p110 delta cells. The series is described as follows: Reverse protein array assay, PKB Ser473 phosphorylation in Rat1-myr-p110 delta cells. Format: cell-based. The settings on record: read-out: p-PKB IC50. The method, boiled down: as §1
Series [4] concerns PKB Ser473 phosphorylation in Rat1-myr-HA-p110 alpha cells. The series is described as follows: Reverse protein array assay, PKB Ser473 phosphorylation in Rat1-myr-p110 alpha cells. The class given is cell-based. The settings on record: 0.5 h, pAkt Ser473, 30 minutes compound incubation, read-out: p-PKB IC50. The method, boiled down: as §1
Another series has as its target T1, PI3K delta (Homo sapiens, UniProt O00329).
T1 construct: for the full-length p110-d subunit are generated and fused by overlapping PCR; p85(iSH2) fusion partner (see partner chain) (N); His tag (C); made in house; host or cells: baculovirus; Tn5 (Trichoplusia ni) or TiniPro insect cells
The series is described as follows: PI3K delta kinase assay (Kinase-Glo luminescence). Format: biochemical. The method, boiled down: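 Construct BV-1060, p85 iSH2–linker–full-length p110δ, His-tagged, at 10 nM, with 1 μM ATP and 10 μg/mL phosphatidylinositol in pH 7.5 Tris, 3 mM MgCl2, 50 mM NaCl, 0.05% CHAPS. Run 60 min at room temperature; remaining ATP read by Kinase-Glo luminescence; IC50 from 4-parameter logistic fit of 8 concentrations.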
Background: Kinase-Glo measures the ATP left after a reaction by luminescence.

For a further series, the target named is T2, mTOR (Homo sapiens, UniProt P42345).
T2 construct: purchased Invitrogen Corporation (Carlsbad/CA, USA) PV4753
T2 sequence (P42345 1360-2549 limits assumed): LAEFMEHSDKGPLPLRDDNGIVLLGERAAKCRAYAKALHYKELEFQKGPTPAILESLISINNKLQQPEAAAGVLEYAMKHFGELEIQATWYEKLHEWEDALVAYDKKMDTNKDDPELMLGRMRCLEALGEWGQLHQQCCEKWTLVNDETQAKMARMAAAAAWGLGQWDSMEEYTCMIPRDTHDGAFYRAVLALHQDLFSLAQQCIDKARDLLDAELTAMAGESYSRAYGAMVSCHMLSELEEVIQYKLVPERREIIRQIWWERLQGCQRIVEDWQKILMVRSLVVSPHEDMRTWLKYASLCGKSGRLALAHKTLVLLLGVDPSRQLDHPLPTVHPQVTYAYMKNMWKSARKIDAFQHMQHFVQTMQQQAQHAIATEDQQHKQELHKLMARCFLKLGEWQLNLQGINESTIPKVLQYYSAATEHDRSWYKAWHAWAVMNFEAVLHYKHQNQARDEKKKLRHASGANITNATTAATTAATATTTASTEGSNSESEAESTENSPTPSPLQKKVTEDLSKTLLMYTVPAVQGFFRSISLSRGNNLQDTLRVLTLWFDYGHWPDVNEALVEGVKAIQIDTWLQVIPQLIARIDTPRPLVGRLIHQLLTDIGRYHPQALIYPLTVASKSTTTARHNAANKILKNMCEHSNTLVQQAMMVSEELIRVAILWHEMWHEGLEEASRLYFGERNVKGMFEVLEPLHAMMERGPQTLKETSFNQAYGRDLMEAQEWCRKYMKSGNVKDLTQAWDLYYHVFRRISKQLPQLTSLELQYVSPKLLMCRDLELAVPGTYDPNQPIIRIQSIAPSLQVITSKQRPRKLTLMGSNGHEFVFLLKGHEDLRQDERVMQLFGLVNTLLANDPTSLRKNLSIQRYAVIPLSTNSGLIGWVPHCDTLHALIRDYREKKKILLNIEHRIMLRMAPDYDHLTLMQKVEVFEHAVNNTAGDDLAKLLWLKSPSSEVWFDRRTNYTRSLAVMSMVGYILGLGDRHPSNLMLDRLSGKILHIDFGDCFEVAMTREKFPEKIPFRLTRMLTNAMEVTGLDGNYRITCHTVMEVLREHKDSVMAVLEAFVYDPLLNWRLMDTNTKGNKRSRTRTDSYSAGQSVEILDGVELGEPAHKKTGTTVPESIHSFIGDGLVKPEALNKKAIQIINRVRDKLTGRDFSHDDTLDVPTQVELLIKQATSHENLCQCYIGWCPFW
The series is described as follows: Biochemical assay for m-TOR by TR-FRET. The settings on record: 8 μM ATP, 400 nM GFP-4EBP1, 0.5 nM mTOR. The method, boiled down:
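TR-FRET read-out: Tb-labelled anti-p4EBP1 pThr46 antibody (0.5 nM), added in EDTA to stop the reaction, detects phosphorylated GFP-4EBP1 after 15 min. Kinase step used 0.5 nM mTOR, 400 nM substrate, 8 μM ATP, MnCl2-containing HEPES buffer pH 7.5, room temperature.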
In general terms: TR-FRET usually uses a lanthanide donor and a delayed reading to cut background.

For another series, the target named is T3, PI3K alpha (Homo sapiens, UniProt P42336).
T3 construct: p85(iSH2) fusion partner (see partner chain) (N); His tag (C); made in house; host or cells: baculovirus; Tn5 (Trichoplusia ni) or TiniPro insect cells
T3 sequence (P42336 with tags, fused parts or gaps limits assumed): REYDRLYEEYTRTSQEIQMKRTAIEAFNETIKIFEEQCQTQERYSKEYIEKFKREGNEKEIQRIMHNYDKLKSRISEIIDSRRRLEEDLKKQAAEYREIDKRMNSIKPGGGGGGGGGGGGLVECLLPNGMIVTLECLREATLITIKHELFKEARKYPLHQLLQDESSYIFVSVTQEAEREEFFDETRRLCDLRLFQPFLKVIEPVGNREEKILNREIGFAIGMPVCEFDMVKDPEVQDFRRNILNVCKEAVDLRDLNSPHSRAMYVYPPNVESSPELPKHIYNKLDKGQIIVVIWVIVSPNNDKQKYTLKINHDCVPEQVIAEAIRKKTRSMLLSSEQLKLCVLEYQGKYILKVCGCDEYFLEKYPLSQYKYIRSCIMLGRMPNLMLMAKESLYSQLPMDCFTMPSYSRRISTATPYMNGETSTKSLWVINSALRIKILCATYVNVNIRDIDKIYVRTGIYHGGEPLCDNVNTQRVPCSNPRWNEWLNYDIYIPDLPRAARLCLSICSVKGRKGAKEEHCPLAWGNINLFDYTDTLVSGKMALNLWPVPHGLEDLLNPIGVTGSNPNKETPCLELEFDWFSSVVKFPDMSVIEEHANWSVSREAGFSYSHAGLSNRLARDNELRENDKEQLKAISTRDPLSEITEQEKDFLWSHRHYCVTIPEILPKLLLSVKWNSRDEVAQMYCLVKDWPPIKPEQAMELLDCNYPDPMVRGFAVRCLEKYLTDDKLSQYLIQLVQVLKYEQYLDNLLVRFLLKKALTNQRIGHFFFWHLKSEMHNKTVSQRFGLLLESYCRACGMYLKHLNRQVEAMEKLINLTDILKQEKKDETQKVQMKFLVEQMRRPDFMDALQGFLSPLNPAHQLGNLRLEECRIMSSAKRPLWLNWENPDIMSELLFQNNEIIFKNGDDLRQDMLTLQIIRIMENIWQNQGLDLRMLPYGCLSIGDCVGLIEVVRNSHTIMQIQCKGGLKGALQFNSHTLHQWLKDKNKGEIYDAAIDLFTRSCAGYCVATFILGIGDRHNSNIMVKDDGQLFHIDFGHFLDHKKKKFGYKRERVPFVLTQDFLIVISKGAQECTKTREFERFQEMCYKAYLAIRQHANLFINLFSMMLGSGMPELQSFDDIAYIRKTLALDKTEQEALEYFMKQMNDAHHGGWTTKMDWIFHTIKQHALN
The series is described as follows: PI3K alpha kinase assay (Kinase-Glo luminescence). The class given is biochemical. The method in brief: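 PI3K alpha at 10 nM with 1 μM ATP and 10 μg/mL phosphatidylinositol in 10 mM TRIS pH 7.5, 3 mM MgCl2, 50 mM NaCl, 0.05% CHAPS, 1 mM DTT, 60 min at room temperature. Remaining ATP read by Kinase-Glo luminescence. IC50 by 4-parameter fit over 8 concentrations.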

Setting [5] is: pH 6.8, aqueous buffer, thermodynamic from solid, read-out: solubility.

T1 sequence (O00329 with tags, fused parts or gaps limits assumed): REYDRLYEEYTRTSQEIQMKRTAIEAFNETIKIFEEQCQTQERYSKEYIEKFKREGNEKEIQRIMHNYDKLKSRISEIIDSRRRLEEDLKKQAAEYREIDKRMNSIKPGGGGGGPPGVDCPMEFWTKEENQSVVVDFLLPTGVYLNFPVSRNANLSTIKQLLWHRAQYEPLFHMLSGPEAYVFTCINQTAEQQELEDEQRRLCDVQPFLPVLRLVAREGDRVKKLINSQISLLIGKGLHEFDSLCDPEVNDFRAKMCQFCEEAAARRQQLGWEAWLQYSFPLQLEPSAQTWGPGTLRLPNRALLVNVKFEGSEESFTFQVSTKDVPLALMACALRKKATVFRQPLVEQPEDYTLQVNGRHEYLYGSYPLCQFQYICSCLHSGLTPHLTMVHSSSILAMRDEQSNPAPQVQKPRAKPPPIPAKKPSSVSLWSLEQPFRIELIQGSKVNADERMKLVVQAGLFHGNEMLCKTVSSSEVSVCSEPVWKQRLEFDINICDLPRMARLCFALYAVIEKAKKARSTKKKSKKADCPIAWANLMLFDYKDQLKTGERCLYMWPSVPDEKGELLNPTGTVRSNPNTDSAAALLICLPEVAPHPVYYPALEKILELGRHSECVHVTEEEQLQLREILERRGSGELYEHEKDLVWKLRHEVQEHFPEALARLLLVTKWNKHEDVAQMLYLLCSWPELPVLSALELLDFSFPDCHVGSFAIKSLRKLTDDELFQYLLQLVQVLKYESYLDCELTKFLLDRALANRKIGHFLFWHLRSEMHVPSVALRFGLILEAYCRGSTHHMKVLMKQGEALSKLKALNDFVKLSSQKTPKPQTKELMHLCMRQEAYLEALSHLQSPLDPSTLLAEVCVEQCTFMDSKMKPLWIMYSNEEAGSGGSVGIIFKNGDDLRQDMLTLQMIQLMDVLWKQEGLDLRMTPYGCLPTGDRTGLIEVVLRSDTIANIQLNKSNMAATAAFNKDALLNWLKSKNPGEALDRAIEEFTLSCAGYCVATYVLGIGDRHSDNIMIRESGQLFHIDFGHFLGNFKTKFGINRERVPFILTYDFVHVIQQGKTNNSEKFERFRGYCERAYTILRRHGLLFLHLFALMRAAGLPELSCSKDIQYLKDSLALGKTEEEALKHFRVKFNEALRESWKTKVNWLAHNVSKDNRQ

In the case of `CCNC(=O)c1cc(-c2ccc3ncc4c(c3c2)n(-c2c(C)nn(C)c2C)c(=O)n4C)cnc1NC` [Example 242.2, N-Ethyl-2-methylamino-5-[3-methyl-2-oxo-1-(1,3,5-trimethyl-1H-pyrazol-4-yl)-2,3-dihydro-1H-imidazo[4,5-c]quinolin-8-yl]-nicotinamide], the IC50 in series [1] was 88 nM; in series [2], 995 nM; in series [3] it was 895 nM; in series [4], 371 nM. Also, the solubility in “Solubility at pH 6.8” (setting [5]) is over 485 µg/mL.

With `CCN(C)c1ccc(-c2ccc3ncc4c(c3c2)n(-c2cn(CC)nc2C)c(=O)n4C)cn1` [Example 98.3, 8-[6-(Ethyl-methyl-amino)-pyridin-3-yl]-1-(1-ethyl-3-methyl-1H-pyrazol-4-yl)-3-methyl-1,3-dihydro-imidazo[4,5-c]quinolin-2-one], the solubility in the series “Solubility at pH 6.8” (setting [5]) amounted to 10 µg/mL (≈ 22.6 µM). In addition, the IC50 at PI3K delta is 72 nM; on mTOR it was 22 nM; in series [2], 16 nM; in series [3] it was 43 nM; on PI3K alpha it was 55 nM; in series [4] it was 12 nM.

As for `CCN(C)c1ccc(-c2ccc3ncc4c(c3c2)n(-c2cn(C(C)C)nc2C)c(=O)n4C)cn1` [Example 98.2, 8-[6-(Ethyl-methyl-amino)-pyridin-3-yl]-1-(1-isopropyl-3-methyl-1H-pyrazol-4-yl)-3-methyl-1,3-dihydro-imidazo[4,5-c]quinolin-2-one], in “Solubility at pH 6.8” (setting [5]), the solubility stood at 75 µg/mL (≈ 165 µM). Further, the IC50 at PI3K delta is 101 nM; at mTOR, 30 nM; in series [2] it was 18 nM; in series [3], 59 nM; on PI3K alpha it was 118 nM; in series [4], 10 nM.

As to `Cc1nn(CC(=O)N(C)C)c(C)c1-n1c(=O)n(C)c2cnc3ccc(-c4ccccc4)cc3c21` [Example 37.4, 2-[3,5-Dimethyl-4-(3-methyl-2-oxo-8-phenyl-2,3-dihydro-imidazo[4,5-c]quinolin-1-yl)-pyrazol-1-yl]-N,N-dimethyl-acetamide], the concentration for half-maximal inhibition (IC50) stood at 844 nM in series [1] and 266 nM on PI3K alpha. Also, in the series “Solubility at pH 6.8” (setting [5]), the solubility amounted to 37 µg/mL (≈ 81.4 µM).

Molecule `Cc1nn(C)cc1-n1c(=O)n(C)c2cnc3ccc(-c4cnc5c(c4)n(C)c(=O)n5C)cc3c21` [Example 67, 8-(1,3-Dimethyl-2-oxo-2,3-dihydro-1H-imidazo[4,5-b]pyridin-6-yl)-1-(1,3-dimethyl-1H-pyrazol-4-yl)-3-methyl-1,3-dihydro-imidazo[4,5-c]quinolin-2-one] showed a solubility in the series “Solubility at pH 6.8” (pH 6.8) of 2 µg/mL (≈ 4.4 µM). In addition, the IC50 in series [2] came to 171 nM; in series [3], 298 nM; in series [4], 166 nM.

As to `CCc1ncc(-c2ccc3ncc4c(c3c2)n(-c2cn(C)nc2C)c(=O)n4C)cc1OC(C)C` [Example 186, 1-(1,3-Dimethyl-1H-pyrazol-4-yl)-8-(6-ethyl-5-isopropoxy-pyridin-3-yl)-3-methyl-1,3-dihydro-imidazo[4,5-c]quinolin-2-one], the IC50 in series [1] was 1.02 nM; on mTOR, 56 nM; in series [2], 34 nM; in series [3], 27 nM; in series [4], under 5 nM. For the same molecule, in the series “Solubility at pH 6.8” (setting [5]), the solubility is 8 µg/mL (≈ 17.5 µM).

Turning to `COCc1cc(-c2ccc3ncc4c(c3c2)n(-c2cn(C)nc2Cl)c(=O)n4C)cnc1N` [Example 168.3, 8-(6-Amino-5-methoxymethyl-pyridin-3-yl)-1-(3-chloro-1-methyl-1H pyrazol-4-yl)-3-methyl-1,3-dihydro-imidazo[4,5-c]quinolin-2-one], the IC50 in series [1] is under 0.5 nM; at mTOR, under 3 nM; in series [2], 6 nM; in series [3], 7 nM; in series [4], 10 nM. Besides, in the series “Solubility at pH 6.8” (setting [5]), the solubility came to 14 µg/mL (≈ 31.1 µM).

On to `CCOc1ccc(-c2ccc3ncc4[nH]c(=O)n(-c5cn(CC(=O)N6CCN(C)CC6)nc5C)c4c3c2)cn1` [Example 133, 8-(6-Ethoxy-pyridin-3-yl)-1-{3-methyl-1-[2-(4-methyl-piperazin-1-yl)-2-oxo-ethyl]-1H-pyrazol-4-yl}-1,3-dihydro-imidazo[4,5-c]quinolin-2-one], for which the IC50 in series [1] was determined as 508 nM; on PI3K delta, 932 nM; on mTOR it was 13 nM; at PI3K alpha, 938 nM. Further, in “Solubility at pH 6.8” (setting [5]), the solubility worked out at 72 µg/mL (≈ 137 µM).

Regarding `COCCn1nc(C)c(-n2c(=O)n(C)c3cnc4ccc(-c5ccc(-n6cccn6)cc5)cc4c32)c1C` [Example 51.5], the IC50 came to 25 nM in series [1]; 362 nM at PI3K delta; 516 nM in series [3]; 110 nM on PI3K alpha; 17 nM in series [4]. Besides, the solubility in “Solubility at pH 6.8” (setting [5]) is 14 µg/mL (≈ 28.4 µM).

Turning to `Cn1cc(-n2c(=O)n(C)c3cnc4ccc(-c5cncc(C(C)(C)O)c5)cc4c32)c(Cl)n1` [Example 215.3, 1-(3-Chloro-1-methyl-1H-pyrazol-4-yl)-8-[5-(1-hydroxy-1-methyl-ethyl)-pyridin-3-yl]-3-methyl-1,3-dihydroimidazo[4,5-c]quinolin-2-one], the half-inhibitory concentration (IC50) was 1 nM in series [1]; 7 nM on mTOR; 16 nM in series [2]; 22 nM in series [3]; 13 nM in series [4]. Also, the solubility in “Solubility at pH 6.8” (setting [5]) worked out at 21 µg/mL (≈ 46.8 µM).

Consider `Cc1nn(C)cc1-n1c(=O)n(C)c2cnc3ccc(-c4cnc5c(c4)nc(C)n5C)cc3c21` [Example 73, 8-(2,3-Dimethyl-3H-imidazo[4,5-b]pyridin-6-yl)-1-(1,3-dimethyl-1H-pyrazol-4-yl)-3-methyl-1,3-dihydro-imidazo[4,5-c]quinolin-2-one], for which the solubility in “Solubility at pH 6.8” (setting [5]) is 41 µg/mL (≈ 93.5 µM). Also, the IC50 worked out at 372 nM at PI3K delta; 160 nM at mTOR; 417 nM in series [2]; 530 nM in series [3]; 173 nM at PI3K alpha; 337 nM in series [4].

In the case of `CN(C)c1ccc(-c2ccc3ncc4c(c3c2)n(-c2ccnn2C)c(=O)n4C)cn1` [Example 4.7, 8-(6-Dimethylamino-pyridin-3-yl)-3-methyl-1-(2-methyl-2H-pyrazol-3-yl)-1,3-dihydro-imidazo[4,5-c]quinolin-2-one], in “Solubility at pH 6.8” (setting [5]), the solubility is 3 µg/mL (≈ 7.51 µM). Also, the IC50 is 505 nM on mTOR; 121 nM in series [2]; 547 nM in series [3]; 461 nM at PI3K alpha; 134 nM in series [4].

As to `Cc1nn(C)cc1-n1c(=O)n(C)c2cnc3ccc(-c4cnc(N5CCCC5)nc4)cc3c21` [Example 140.2, 1-(1,3-Dimethyl-1H-pyrazol-4-yl)-3-methyl-8-(2-pyrrolidin-1-yl-pyrimidin-5-yl)-1,3-dihydro-imidazo[4,5-c]quinolin-2-one], the IC50 in series [1] was 6 nM; in series [2], 36 nM; in series [3] it was 62 nM; in series [4] it was 29 nM. In “Solubility at pH 6.8” (pH 6.8), this molecule returned a solubility of 2 µg/mL (≈ 4.54 µM).
